Measurements published in PubChem BioAssay (NCI).
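Growth conditions: 96-well plates. Treatment: test compound, 48 hours, 5 concentrations. Analysis: linear interpolation between bracketing concentrations; unreached endpoints set to highest concentration. The concentration for 50% growth inhibition is given as GI50. TGI: concentration producing complete growth inhibition.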

What was measured:
Experiment in all cases: inhibition of tumour cell growth, NCI panel, 48 h
[1] = tested on: K-562 leukemia
[2] = tested on: SK-OV-3 ovarian
[3] = tested on: NCI/ADR-RES ovarian
[4] = tested on: ACHN renal
[5] = tested on: HL-60(TB) leukemia
[6] = tested on: BT-549 breast
[7] = tested on: HCC-2998 colon
[8] = tested on: KM12 colon
[9] = tested on: UACC-62 melanoma
[10] = tested on: HCT-15 colon
[11] = tested on: EKVX NSCLC
[12] = tested on: SF-268 CNS
[13] = tested on: MDA-MB-231 breast
[14] = tested on: M14 melanoma
[15] = tested on: NCI-H226 lung
[16] = tested on: CAKI-1 renal
[17] = tested on: NCI-H460 lung
[18] = tested on: IGROV1 ovarian
[19] = tested on: SNB-19 CNS
[20] = tested on: OVCAR-8 ovarian
[21] = tested on: DU-145 prostate
[22] = tested on: CCRF-CEM leukemia
[23] = tested on: MCF7 breast
[24] = tested on: SF-295 CNS
[25] = tested on: SK-MEL-2 melanoma
[26] = tested on: MDA-MB-435
[27] = tested on: OVCAR-5 ovarian
[28] = tested on: TK-10 renal
[29] = tested on: RPMI-8226 leukemia
[30] = tested on: COLO 205 colon
[31] = tested on: SK-MEL-5 melanoma
[32] = tested on: SNB-75 CNS
[33] = tested on: HOP-62 NSCLC
[34] = tested on: SW-620 colon
[35] = tested on: HS 578T breast
[36] = tested on: A498 renal
[37] = tested on: OVCAR-3 ovarian
[38] = tested on: A549 NSCLC
[39] = tested on: LOX IMVI melanoma
[40] = tested on: T-47D breast
[41] = tested on: SK-MEL-28 melanoma
[42] = tested on: UO-31 renal
[43] = tested on: NCI-H522 lung
[44] = tested on: HT29 colon
[45] = tested on: MALME-3M melanoma
[46] = tested on: SN12C renal
[47] = tested on: OVCAR-4 ovarian
[48] = tested on: RXF 393 renal
[49] = tested on: SF-539 CNS
[50] = tested on: SR leukemia
[51] = tested on: U251 CNS
[52] = tested on: HOP-92 NSCLC
[53] = tested on: PC-3 prostate
[54] = tested on: UACC-257 melanoma
[55] = tested on: MOLT-4 leukemia
[56] = tested on: 786-0 renal

NC(N)=Nc1ccc(Oc2cccc(Nc3ccc(Br)c(C(F)(F)F)c3)c2)cn1
GI50 [1]: 2.07 µM | TGI [1]: > 100 µM | GI50 [2]: 2.04 µM | TGI [2]: 3.68 µM | GI50 [3]: 3.93 µM | TGI [3]: 29.5 µM | GI50 [4]: 1.75 µM | TGI [4]: 3.2 µM | GI50 [5]: 1.63 µM | TGI [5]: 4.12 µM

COC1CCN(Cc2ccc3c(NNC(=O)c4cnccn4)nc4cc(F)ccc4n23)C1 (stereo unspecified)
GI50 [6]: 2.32 µM | TGI [6]: > 100 µM | GI50 [7]: 3.63 µM | TGI [7]: 26.8 µM | GI50 [8]: 2.14 µM | TGI [8]: > 100 µM | GI50 [9]: 2.3 µM | TGI [9]: 13.1 µM | GI50 [10]: 0.355 µM | TGI [10]: 16.3 µM | GI50 [11]: 1.08 µM | TGI [11]: 23 µM | GI50 [12]: 1.99 µM | TGI [12]: > 100 µM | GI50 [13]: 1.8 µM | TGI [13]: 17.3 µM | GI50 [14]: 1.37 µM | TGI [14]: 13.1 µM | GI50 [1]: 0.53 µM | TGI [1]: > 100 µM | GI50 [15]: 1.7 µM | TGI [15]: 18.2 µM | GI50 [16]: 0.933 µM | TGI [16]: 19.7 µM | GI50 [17]: 0.453 µM | TGI [17]: 13.6 µM | GI50 [18]: 1.13 µM | TGI [18]: 39.1 µM | GI50 [19]: 2.05 µM | TGI [19]: 28.4 µM | GI50 [20]: 0.846 µM | TGI [20]: 15.1 µM | GI50 [21]: 2.68 µM | TGI [21]: > 100 µM | GI50 [22]: 0.468 µM | TGI [22]: > 100 µM | GI50 [23]: 0.531 µM | TGI [23]: 12.3 µM | GI50 [24]: 0.744 µM | TGI [24]: 14.6 µM | GI50 [25]: 3.83 µM | TGI [25]: 59.4 µM | GI50 [26]: 2.09 µM | TGI [26]: 18.7 µM | GI50 [27]: 2.71 µM | TGI [27]: 97.7 µM | GI50 [28]: 1.48 µM | TGI [28]: 58.4 µM | GI50 [29]: 1.76 µM | TGI [29]: 15.6 µM | GI50 [30]: 0.949 µM | TGI [30]: 13.9 µM | GI50 [31]: 2.76 µM | TGI [31]: 23.6 µM | GI50 [2]: 2.35 µM | TGI [2]: 56 µM | GI50 [32]: 0.538 µM | TGI [32]: 13 µM | GI50 [3]: 0.505 µM | TGI [3]: 16.6 µM | GI50 [4]: 0.647 µM | TGI [4]: 31.8 µM | GI50 [33]: 0.747 µM | TGI [33]: 14.4 µM | GI50 [34]: 0.821 µM | TGI [34]: 20.3 µM | GI50 [35]: 3.44 µM | TGI [35]: > 100 µM | GI50 [36]: 89.2 µM | TGI [36]: > 100 µM | GI50 [37]: 2.02 µM | TGI [37]: 49.8 µM | GI50 [38]: 1.24 µM | TGI [38]: 16 µM | GI50 [39]: 1.13 µM | TGI [39]: 2.87 µM | GI50 [40]: 1.06 µM | TGI [40]: 64.5 µM | GI50 [41]: 3.37 µM | TGI [41]: > 100 µM | GI50 [42]: 0.26 µM | TGI [42]: 14.6 µM | GI50 [43]: 1.64 µM | TGI [43]: 5.85 µM | GI50 [5]: 1.03 µM | GI50 [44]: 0.552 µM | TGI [44]: 14.8 µM | GI50 [45]: 3.38 µM | TGI [45]: 18.9 µM | GI50 [46]: 1.82 µM | TGI [46]: 37 µM | GI50 [47]: 0.667 µM | TGI [47]: 19.1 µM | GI50 [48]: 1.65 µM | TGI [48]: 5.19 µM | GI50 [49]: 1.32 µM | TGI [49]: 12.1 µM | GI50 [50]: 0.722 µM | TGI [50]: 20.5 µM | GI50 [51]: 0.601 µM | TGI [51]: 10.9 µM | GI50 [52]: 1.77 µM | TGI [52]: 30 µM | GI50 [53]: 1.45 µM | TGI [53]: 30.2 µM | GI50 [54]: 2.23 µM | TGI [54]: 6.93 µM | GI50 [55]: 0.699 µM | TGI [55]: 41.5 µM | GI50 [56]: 1.93 µM | TGI [56]: 20.3 µM
